Results taken from PubChem BioAssay AID2060507 (Molecular Pharmacology Branch, DTP, NCI, 2025).

System: 519858-162-T-J1-PDC complex spheroid viability
Test: Anticancer human tumor 519858-162-T-J1-PDC patient-derived colon adenocarcinoma cell line growth inhibition [GQUAD]
Settings: for IC50: curve of first compound; for viability, T/C: stronger effect = lower value
Procedure, shortened: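 Multi-cell-type spheroids of tumor cells with HUVEC and mesenchymal stem cells, treated with drug combinations. Concentrations descend in half-log steps from near clinical Cmax, or from 10 microM where Cmax is unknown; viability read-out.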

[1] = second compound 0.0316 µM, first compound 0.0316 µM
[2] = second compound 0.0316 µM, first compound 0.1 µM
[3] = second compound 0.0316 µM, first compound 0.316 µM
[4] = second compound 0.0316 µM, first compound 1 µM
[5] = second compound 0.0316 µM, first compound 3.16 µM
[6] = second compound 0.0316 µM, first compound 10 µM
[7] = second compound 0.1 µM, first compound 0.0316 µM
[8] = second compound 0.1 µM, first compound 0.1 µM
[9] = second compound 0.1 µM, first compound 0.316 µM
[10] = second compound 0.1 µM, first compound 1 µM
[11] = second compound 0.1 µM, first compound 3.16 µM
[12] = second compound 0.1 µM, first compound 10 µM
[13] = second compound 0.316 µM, first compound 0.0316 µM
[14] = second compound 0.316 µM, first compound 0.1 µM
[15] = second compound 0.316 µM, first compound 0.316 µM
[16] = second compound 0.316 µM, first compound 1 µM
[17] = second compound 0.316 µM, first compound 3.16 µM
[18] = second compound 0.316 µM, first compound 10 µM
[19] = second compound 1 µM, first compound 0.0316 µM
[20] = second compound 1 µM, first compound 0.1 µM
[21] = second compound 1 µM, first compound 0.316 µM
[22] = second compound 1 µM, first compound 1 µM
[23] = second compound 1 µM, first compound 3.16 µM
[24] = second compound 1 µM, first compound 10 µM
[25] = second compound 3.16 µM, first compound 0.0316 µM
[26] = second compound 3.16 µM, first compound 0.1 µM
[27] = second compound 3.16 µM, first compound 0.316 µM
[28] = second compound 3.16 µM, first compound 1 µM
[29] = second compound 3.16 µM, first compound 3.16 µM
[30] = second compound 3.16 µM, first compound 10 µM
[31] = second compound 10 µM, first compound 0.0316 µM
[32] = second compound 10 µM, first compound 0.1 µM
[33] = second compound 10 µM, first compound 0.316 µM
[34] = second compound 10 µM, first compound 1 µM
[35] = second compound 10 µM, first compound 3.16 µM
[36] = second compound 10 µM, first compound 10 µM
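Note: spheroids exposed to compounds for 7 days.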
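Throughout, for viability, T/C: 100% = DMSO vehicle control viability.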

Cc1cccc(N(C)C(=O)C2C(O)CCN2c2nc(C)cc(C(F)(F)F)c2C#N)c1 (stereo unspecified) + Cc1cnc(CNC(=O)c2c(=O)c3ccc(N4CCCN(C)CC4)nc3n3c2sc2ccccc23)cn1
IC50 (second compound 0.0316 µM): > 10000 nM | IC50 (second compound 0.1 µM): > 10000 nM | IC50 (second compound 0.316 µM): > 10000 nM | IC50 (second compound 1 µM): 1980 nM | IC50 (second compound 3.16 µM): 34.2 nM | IC50 (second compound 10 µM): 76.2 nM | viability, T/C [1]: 87.7% | viability, T/C [2]: 70.2% | viability, T/C [3]: 62.9% | viability, T/C [4]: 75.9% | viability, T/C [5]: 70.7% | viability, T/C [6]: 81.6% | viability, T/C [7]: 67.2% | viability, T/C [8]: 72.2% | viability, T/C [9]: 76% | viability, T/C [10]: 62% | viability, T/C [11]: 50% | viability, T/C [12]: 78.8% | viability, T/C [13]: 82.5% | viability, T/C [14]: 79.8% | viability, T/C [15]: 59.8% | viability, T/C [16]: 52.8% | viability, T/C [17]: 65.5% | viability, T/C [18]: 49.3% | viability, T/C [19]: 71.6% | viability, T/C [20]: 62.1% | viability, T/C [21]: 52.4% | viability, T/C [22]: 56.1% | viability, T/C [23]: 50.5% | viability, T/C [24]: 44.2% | viability, T/C [25]: 48.9% | viability, T/C [26]: 50% | viability, T/C [27]: 45.5% | viability, T/C [28]: 36.2% | viability, T/C [29]: 46.1% | viability, T/C [30]: 40.9% | viability, T/C [31]: 50.6% | viability, T/C [32]: 54.8% | viability, T/C [33]: 44.4% | viability, T/C [34]: 41.2% | viability, T/C [35]: 43.2% | viability, T/C [36]: 43.4%

Cn1ncnc1[C@H]1c2n[nH]c(=O)c3cc(F)cc(c23)N[C@@H]1c1ccc(F)cc1 + Cc1cnc(CNC(=O)c2c(=O)c3ccc(N4CCCN(C)CC4)nc3n3c2sc2ccccc23)cn1
IC50 (second compound 0.0316 µM): > 316 nM | IC50 (second compound 0.1 µM): > 316 nM | IC50 (second compound 0.316 µM): > 316 nM | IC50 (second compound 1 µM): > 316 nM | IC50 (second compound 3.16 µM): < 0.999 nM | IC50 (second compound 10 µM): < 0.999 nM | viability, T/C (second compound 0.0316 µM, first compound 0.000999 µM): 96.5% | viability, T/C (second compound 0.0316 µM, first compound 0.00316 µM): 116% | viability, T/C (second compound 0.0316 µM, first compound 0.00999 µM): 101% | viability, T/C [1]: 72.1% | viability, T/C (second compound 0.0316 µM, first compound 0.0999 µM): 70.2% | viability, T/C [3]: 57.8% | viability, T/C (second compound 0.1 µM, first compound 0.000999 µM): 60.1% | viability, T/C (second compound 0.1 µM, first compound 0.00316 µM): 92.9% | viability, T/C (second compound 0.1 µM, first compound 0.00999 µM): 79.5% | viability, T/C [7]: 79.5% | viability, T/C (second compound 0.1 µM, first compound 0.0999 µM): 56.8% | viability, T/C [9]: 65.2% | viability, T/C (second compound 0.316 µM, first compound 0.000999 µM): 85.3% | viability, T/C (second compound 0.316 µM, first compound 0.00316 µM): 81.8% | viability, T/C (second compound 0.316 µM, first compound 0.00999 µM): 65.9% | viability, T/C [13]: 72% | viability, T/C (second compound 0.316 µM, first compound 0.0999 µM): 61.5% | viability, T/C [15]: 58.9% | viability, T/C (second compound 1 µM, first compound 0.000999 µM): 85.2% | viability, T/C (second compound 1 µM, first compound 0.00316 µM): 72.3% | viability, T/C (second compound 1 µM, first compound 0.00999 µM): 60.9% | viability, T/C [19]: 73.3% | viability, T/C (second compound 1 µM, first compound 0.0999 µM): 69.9% | viability, T/C [21]: 72.7% | viability, T/C (second compound 3.16 µM, first compound 0.000999 µM): 47.3% | viability, T/C (second compound 3.16 µM, first compound 0.00316 µM): 48.7% | viability, T/C (second compound 3.16 µM, first compound 0.00999 µM): 50.3% | viability, T/C [25]: 38.7% | viability, T/C (second compound 3.16 µM, first compound 0.0999 µM): 43.1% | viability, T/C [27]: 52.3% | viability, T/C (second compound 10 µM, first compound 0.000999 µM): 26.9% | viability, T/C (second compound 10 µM, first compound 0.00316 µM): 54% | viability, T/C (second compound 10 µM, first compound 0.00999 µM): 44.4% | viability, T/C [31]: 50.4% | viability, T/C (second compound 10 µM, first compound 0.0999 µM): 49.1% | viability, T/C [33]: 72%

O=C(c1cc(Cc2n[nH]c(=O)c3ccccc23)ccc1F)N1CCN(C(=O)C2CC2)CC1 + Cc1cnc(CNC(=O)c2c(=O)c3ccc(N4CCCN(C)CC4)nc3n3c2sc2ccccc23)cn1
IC50 (second compound 0.0316 µM): > 10000 nM | IC50 (second compound 0.1 µM): > 10000 nM | IC50 (second compound 0.316 µM): > 10000 nM | IC50 (second compound 1 µM): > 10000 nM | IC50 (second compound 3.16 µM): < 31.6 nM | IC50 (second compound 10 µM): < 31.6 nM | viability, T/C [1]: 92.2% | viability, T/C [2]: 89.5% | viability, T/C [3]: 89.7% | viability, T/C [4]: 81.5% | viability, T/C [5]: 64.2% | viability, T/C [6]: 74.7% | viability, T/C [7]: 52.6% | viability, T/C [8]: 65.7% | viability, T/C [9]: 65.3% | viability, T/C [10]: 58.8% | viability, T/C [11]: 48.3% | viability, T/C [12]: 74.5% | viability, T/C [13]: 82.6% | viability, T/C [14]: 72.4% | viability, T/C [15]: 50.3% | viability, T/C [16]: 47.6% | viability, T/C [17]: 52.9% | viability, T/C [18]: 60.6% | viability, T/C [19]: 68.6% | viability, T/C [20]: 67.5% | viability, T/C [21]: 48.3% | viability, T/C [22]: 64.4% | viability, T/C [23]: 45.5% | viability, T/C [24]: 54.6% | viability, T/C [25]: 60% | viability, T/C [26]: 31.8% | viability, T/C [27]: 39.6% | viability, T/C [28]: 39.2% | viability, T/C [29]: 47.4% | viability, T/C [30]: 41.2% | viability, T/C [31]: 47.9% | viability, T/C [32]: 46.5% | viability, T/C [33]: 49.7% | viability, T/C [34]: 44.6% | viability, T/C [35]: 49% | viability, T/C [36]: 57.2%
